A word on the Ki: it is the dissociation constant of the complex between target and ligand, obtained from inhibition or displacement. Low values mean higher affinity, high ones lower affinity. By IC50 is commonly meant the concentration needed to halve the response being measured. Read a low IC50 as higher potency.

For 15 molecules, Ki and IC50 results are on record in ChEMBL document CHEMBL1149934, “(N-acyl-N-alkyl)glycyl borolysine analogs: A new class of potent thrombin inhibitors” (Bioorg Med Chem Lett, 1996).

The target in test [1] is T1, Prothrombin (Homo sapiens, UniProt P00734). Nature of the test: In vitro for inhibition of thrombin.
The target of test [2] is Plasminogen (Homo sapiens, UniProt P00747). Description: In vitro for inhibition of plasmin.
Test [3] deals with Tissue-type plasminogen activator (Homo sapiens, UniProt P00750). Description: Compound was tested in vitro for inhibition of tissue plasminogen activator.
The target in test [4] is Serine protease 1 (Homo sapiens, UniProt P07477). Description: Compound was tested in vitro for inhibition of trypsin.
The target of test [5] is T1, Prothrombin. Description: Compound was tested in vitro for inhibition of thrombin.

Structures are written as SMILES.

Chain of Tissue-type plasminogen activator (P00750 whole entry): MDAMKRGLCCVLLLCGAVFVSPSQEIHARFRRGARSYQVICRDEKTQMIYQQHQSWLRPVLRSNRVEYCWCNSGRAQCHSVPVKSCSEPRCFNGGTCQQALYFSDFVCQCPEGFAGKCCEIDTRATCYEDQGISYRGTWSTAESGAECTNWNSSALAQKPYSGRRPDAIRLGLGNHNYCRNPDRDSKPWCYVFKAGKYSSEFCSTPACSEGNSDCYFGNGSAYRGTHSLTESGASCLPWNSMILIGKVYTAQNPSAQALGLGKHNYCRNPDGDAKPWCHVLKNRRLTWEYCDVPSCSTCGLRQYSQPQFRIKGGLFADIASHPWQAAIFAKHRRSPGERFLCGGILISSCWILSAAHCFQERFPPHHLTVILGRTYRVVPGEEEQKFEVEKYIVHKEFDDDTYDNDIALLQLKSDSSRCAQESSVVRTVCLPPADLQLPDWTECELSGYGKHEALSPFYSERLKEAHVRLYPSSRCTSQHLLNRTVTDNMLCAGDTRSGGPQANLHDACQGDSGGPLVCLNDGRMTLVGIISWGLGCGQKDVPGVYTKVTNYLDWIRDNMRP
Chain of Serine protease 1 (P07477 whole entry): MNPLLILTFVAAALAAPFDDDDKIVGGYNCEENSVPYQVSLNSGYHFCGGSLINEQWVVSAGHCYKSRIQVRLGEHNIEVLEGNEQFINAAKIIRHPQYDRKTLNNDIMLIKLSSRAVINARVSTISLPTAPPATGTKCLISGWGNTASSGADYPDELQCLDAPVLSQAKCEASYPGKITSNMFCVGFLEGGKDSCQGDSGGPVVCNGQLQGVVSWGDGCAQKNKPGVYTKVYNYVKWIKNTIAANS
Chain of Plasminogen (P00747 97-580 limits assumed): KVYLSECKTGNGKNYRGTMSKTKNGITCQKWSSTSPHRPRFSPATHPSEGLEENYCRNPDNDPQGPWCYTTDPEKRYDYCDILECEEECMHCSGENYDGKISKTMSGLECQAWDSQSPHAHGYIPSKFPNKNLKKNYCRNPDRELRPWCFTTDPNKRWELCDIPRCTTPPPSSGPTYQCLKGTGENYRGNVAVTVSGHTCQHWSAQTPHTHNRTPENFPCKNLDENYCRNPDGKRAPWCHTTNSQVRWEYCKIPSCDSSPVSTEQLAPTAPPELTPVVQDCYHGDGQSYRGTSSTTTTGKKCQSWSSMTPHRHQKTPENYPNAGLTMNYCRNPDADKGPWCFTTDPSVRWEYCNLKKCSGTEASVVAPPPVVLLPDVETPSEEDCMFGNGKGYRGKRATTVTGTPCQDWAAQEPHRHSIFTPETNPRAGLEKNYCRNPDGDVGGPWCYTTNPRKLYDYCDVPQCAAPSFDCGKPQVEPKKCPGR
Chain of Plasminogen (P00747 581-810 limits assumed): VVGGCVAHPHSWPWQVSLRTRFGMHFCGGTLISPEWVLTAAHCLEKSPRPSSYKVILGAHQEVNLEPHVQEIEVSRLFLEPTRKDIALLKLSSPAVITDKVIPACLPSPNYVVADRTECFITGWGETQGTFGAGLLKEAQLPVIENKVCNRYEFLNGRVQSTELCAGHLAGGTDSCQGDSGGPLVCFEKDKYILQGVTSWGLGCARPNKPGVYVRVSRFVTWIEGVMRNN

In test [1], `CN(CC(=O)N[C@@H](CCCCN)B(O)O)C(=O)Cc1ccccc1` gave a Ki of 16 nM.

Take `NCCCC[C@H](NC(=O)CN(Cc1ccccc1)C(=O)CCc1ccccc1)B(O)O`: the Ki in test [1] was determined as 4.68 nM.

As to `NCCCC[C@H](NC(=O)CN(C(=O)CCc1ccccc1)c1ccccc1)B(O)O`, the Ki in test [2] was 230 nM; in test [1] it was 1.4 nM; in test [3] it was 280 nM.

Consider `CC(=O)N[C@H](Cc1ccccc1)C(=O)N1CCC[C@H]1C(=O)N[C@@H](CCCN=C(N)N)B(O)O`, for which the Ki worked out at 5.1 nM in test [2], 0.045 nM in test [4] and 5.7 nM in test [3].

`NCCCC[C@H](NC(=O)CN(C(=O)CCc1ccccc1)C1CC1)B(O)O`: the Ki in test [2] turned out to be 160 nM; in test [1], 0.69 nM; in test [4], 1.1 nM; in test [3], 750 nM.

The molecule `CN(CC(=O)N[C@@H](CCCCN)B(O)O)C(=O)c1ccccc1` yielded a Ki in test [1] of 123 nM.

With `CN(CC(=O)N[C@@H](CCCCN)B(O)O)C(=O)CCc1ccccc1`, the Ki in test [2] was 250 nM; in test [1], 1.71 nM; in test [4], 2.8 nM; in test [3], 3800 nM.

Molecule `NCCCC[C@H](NC(=O)CNC(=O)CCc1ccccc1)B(O)O` registered an IC50 in test [5] of 90000 nM.

In test [1], `CN(CC(=O)N[C@@H](CCCCN)B(O)O)C(=O)CCCc1ccccc1` gave a Ki of 5.4 nM.

Regarding `CC(C)N(CC(=O)N[C@@H](CCCCN)B(O)O)C(=O)CCc1ccccc1`, the Ki in test [2] was 140 nM; in test [1] it was 1.6 nM; in test [4] it was 3.8 nM; in test [3], 3370 nM.

For the molecule `NCCCC[C@H](NC(=O)CN(C(=O)CCc1ccccc1)C1CCCCC1)B(O)O`, the Ki in test [2] is 250 nM; in test [1] it was 4.9 nM; in test [4], 8.4 nM; in test [3], 1100 nM.

Take `CN=C(N)NCCC[C@H](NC(=O)CN(C)C(=O)CCc1ccccc1)B(O)O`: the Ki in test [2] is 14000 nM; in test [1], 2.1 nM; in test [4], 18 nM.

With `CN(CC(=O)N[C@@H](CCCN=C(N)N)B(O)O)C(=O)CCc1ccccc1`, the Ki amounted to 460 nM in test [2], 0.16 nM in test [1], 0.61 nM in test [4] and 51 nM in test [3].

`CN(CC(=O)N[C@@H](CCC/N=C\N)B(O)O)C(=O)CCc1ccccc1`: the Ki is > 10000 nM in test [2], 9.1 nM in test [1], 21 nM in test [4] and 7000 nM in test [3].

In the case of `NCCCC[C@H](NC(=O)CN(CCc1ccccc1)C(=O)CCc1ccccc1)B(O)O`, the Ki amounted to 170 nM in test [2], 0.42 nM in test [1], 2.5 nM in test [4] and 680 nM in test [3].
